Entries after “also recorded” stand apart in the source; their conditions may differ.
Assays:
ovariectomized rats = experiment: Whole body DEXA body composition in ovariectomized rats (Example 3); type: in vivo, rat
Description: FIG. 1 is a flow-chart illustrating the experimental design of the investigations described herein. Female Sprague Dawley rats (Taconic, German Town, N.Y.) were placed on a purified diet of 0.5% calcium and 0.4% phosphorus (AIN-76A Rodent Diet, prepared by Research Diet, Inc., New Brunswick, N.J.). At 4 months of age, a first subset (20) of the animals was sham-operated while a second subset (90) was ovariectomized. The time of ovariectomy is designated as week 0. Eight weeks after this surgery, the ovariectomized animals were divided into experimental groups receiving the following dosing regimen: 2MD, at doses of 0.5, 1.0, 2.5, 5.0 and 10 ng/kg/day; calcitriol (the active form of vitamin D), at doses of 50 ng/kg/day and 200 ng/kg/day; and human parathyroid hormone hPTH, at doses of 20 μg/kg/day. The 2MD and the calcitriol were administered orally in 100 μl of vegetable oil delivered to the back of the tongue by a throat tube, while the hPTH was administered sub-cutaneously.
Serum calcium was measured by tail bleeding at week 14 ([…]), week 21 and week 24. At week 24, the animals were sacrificed and the following endpoint measurements were taken: whole body DEXA; bone markers: osteocalcin and deoxypyridinoline (DPD); peripheral quantitative computed tomography (pQCT) of the distal femoral metaphysis (DFM) and femoral shaft (FS); micro-computerized tomography (micro-CT) of the DFM; serum parathyroid hormone (PTH); histomorphometry of the proximal tibial metaphysis (PTM), lumbar vertebra 3 (LV3) and trabecular separation (TS); and bone strength of the DFM, FS and lumbar vertebra 5 (LV5).
At week 0, the animals underwent surgical treatment as explained above. The animals were allowed to recuperate for 8 weeks before the dosing regimen began (0 wk). At 24 weeks post-surgery the animals were sacrificed and endpoint measurements were taken as explained above.

osteoblast cell line = conditions: Yamamoto et al., J. Biol. Chem. 278, 31756 (2003); cited from earlier work
[1] = studies described in Shevde et al.; cited from earlier work
[2] = cited from earlier work
human leukemia cells = conditions: biological testing of 19-nor-analogs; cited from earlier work
[3] = 200 ng/kg/day oral, DEXA, FIG. 4
[4] = 10 ng/kg/day oral, DEXA, FIG. 3
[5] = 10 ng/kg/day oral, DEXA, FIG. 4
[6] = doses of at least 2.5 ng/kg/day, DEXA, FIG. 4

## C=C1/C(=C\C=C2/CCC[C@]3(C)[C@@H]([C@H](C)CCCC(C)(C)O)CC[C@@H]23)C[C@@H](O)C[C@@H]1O [calcitriol, 1α,25-dihydroxyvitamin D3, reference compound]
Ovariectomized rats; 50 ng/kg/day oral, DEXA, FIG. 3
  percent body fat compared to ovariectomized controls: at most only a minor difference
Ovariectomized rats; 200 ng/kg/day oral, DEXA, FIG. 3
  percent body fat compared to ovariectomized controls: significant decrease
Ovariectomized rats; [3]
  body fat compared to ovariectomized controls: less body fat
  body fat compared to sham-operated controls: noticeable increase in body fat
Ovariectomized rats; calcitriol group, DEXA, FIG. 4
  body weight compared to ovariectomized controls: only a tendency for reduction
  overall body weight compared to sham-controls: increase in overall body weight
Ovariectomized rats; even at much higher doses than 2MD
  reduction of total body weight: did not act to significantly reduce

## C=C1[C@H](O)CC(=C/C=C2\CCC[C@]3(C)[C@@H]([C@@H](C)CCCC(C)(C)O)CC[C@@H]23)C[C@H]1O [2MD, 2-methylene-19-nor-(20S)-1α,25 dihydroxyvitamin D3]
Ovariectomized rats; 0.5 ng/kg/day oral, DEXA, FIG. 3
  percent body fat compared to ovariectomized/vehicle controls: little to no effect; also recorded: noticeable trend for a reduced increase
Ovariectomized rats; 1 ng/kg/day oral, DEXA, FIG. 3
  percent body fat compared to ovariectomized/vehicle controls: little to no effect
Ovariectomized rats; 5 ng/kg/day oral, DEXA, FIG. 3
  percent body fat compared to ovariectomized controls: significant decrease
Ovariectomized rats; 5 ng/kg/day oral, DEXA, FIG. 4
  body fat component compared to ovariectomized-vehicle controls: significantly less body fat
  bone mineral content (BMC) component compared to sham-operated controls: an increase
  lean component compared to sham-operated controls: an increase
  total body weight compared to sham/vehicle controls: significantly increased
Ovariectomized rats; 5 ng/kg/day oral, FIG. 3
  reduction in body fat compared with calcitriol at 200 ng/kg/day: as great an effect
Ovariectomized rats; [4]
  percent body fat compared to ovariectomized controls: significant decrease
  percent body fat compared to sham-operated controls: noticeably less percent body fat
Ovariectomized rats; [5]
  body fat component compared to ovariectomized controls: significantly lower
  body fat component compared to sham-operated controls: less body fat
  body weight compared to ovariectomized controls: significantly reduced
  lean body weight plus bone mineral content relative to sham operated animals: increased
  lean body weight relative to sham operated animals: increased
  total body weight compared to sham-control: virtually the same
Ovariectomized rats; 10 ng/kg/day oral, FIG. 3
  decrease in the fat component compared with the group receiving 200 ng/kg/day calcitriol: greater decrease
Ovariectomized rats; DEXA, FIG. 4
  increase in lean body component and bone mineral component compared with calcitriol at 50 ng/kg/day: more positive effect
Ovariectomized rats; OVX rats, 2MD 10 ng/kg/day oral, DEXA at week 24 (sham-operated group 25%)
  body fat content: 20%
Ovariectomized rats; [6]
  bone mineral content (BMC) relative to sham-operated or ovariectomized controls: noticeable increase
  lean body weight relative to sham-operated or ovariectomized controls: noticeable increase
Ovariectomized rats; starting at the 1 ng/kg/day dose, DEXA, FIG. 4
  fat component relative to OVX-controls: trend for a decrease
Osteoblast cell line
  activity relative to calcitriol in inducing genes in the osteoblast cell line: at least 100 fold
[1]
  intestinal calcium transport activity: low
[2]; studies described in Shevde et al.
  bone calcium mobilization activity: high

## C[C@H](CCCC(C)(C)O)[C@H]1CC[C@H]2/C(=C/C=C3C[C@@H](O)C[C@H](O)C3)CCC[C@]12C [1α,25-dihydroxy-19-nor-vitamin D3, reference compound]
[2]; biological testing of 19-nor-analogs
  calcium mobilizing activity: very low
Human leukemia cells
  potency in inducing cellular differentiation: high potency

B1: hPTH: human parathyroid hormone hPTH, administered sub-cutaneously at 20 μg/kg/day (peptide, UniProt P01270 32-115, looked up)
Parathyroid hormone: SVSEIQLMHNLGKHLNSMERVEWLRKKLQDVHNFVALGAPLAPRDAGSQRPRKKEDNVLVESHEKSLGEADKADVNVLTKAKSQ
modifications: Parathyroid hormone
notes: human parathyroid hormone hPTH, administered sub-cutaneously at 20 μg/kg/day
Ovariectomized rats; 20 μg/kg/day sub-cutaneously, DEXA, FIG. 3
  percent body fat compared to ovariectomized controls: at most only a minor difference

Source: patent US20050143358A1, “Methods for reducing body fat using vitamin D compounds” (Deltanoid Pharmaceuticals, Inc., priority 2003, published 2005)
